Several values for one entry are separate records, joined by “and”; a condition that tells them apart may be missing. Equal values may be shown once. Read-outs that look alike come from different tables or passages of the source.
Assays:
[1] = system: RSV infection; assay: Phase 2 study: Wang Respiratory Score; type: in vivo, human (infants); conditions: for Hodges–Lehmann estimation of between-group difference in Wang Respiratory Score: Part 2, 2 mg/kg vs placebo, 96 h
[2] = Phase 2 study: population pharmacokinetics of plasma concentrations; type: in vivo, human (infants); conditions: for Tmax / AUC(0-t) / Cmax / AUC(0-inf) / half-life: human, plasma; for Cmax: read-out: Cmax mean (CV %); for AUC(0-inf): read-out: AUC0–∞ mean (CV %); for half-life: read-out: t½ mean (CV %) (converted)
Experimental: Individual plasma concentrations of the active drug were measured, and PK were determined using nonlinear mixed‐effect models. In all cases, when new data were available, the updated model was used for evaluation under the assumption of an allometric coefficient of 0.75 and incorporation of CYP maturation. Using a Population PK (Pop‐PK) analysis approach, AUC0–∞, clearance (CL/F), volume of distribution (Vc/F), and other PK parameters were estimated for AK0529. Maximum plasma concentration (Cmax) was computed from the predicted profiles.
Clinical safety and tolerability were assessed on the safety population, comprising all subjects who received ≥1 dose of study drug. Clinical variables were evaluated in the full analysis population, which included all subjects who received a dose of study drug and for whom ≥1 post‐treatment assessment was available. Pharmacokinetic analysis was performed on those subjects in the safety population for whom both pre‐ and post‐dose samples were available.

[3] = system: laboratory strains of RSV-A and RSV-B; assay: Cytopathic effect (CPE) assay using Hep-2 cells; type: cell-based, human RSV; conditions: human respiratory syncytial virus
Experimental: (§1) The EC90 value was determined in the presence of the known plasma protein binding in the CPE assay. […] To achieve a target efficacious concentration in humans, it was expected that a minimum target of 5 × EC90 value, or approximately 40 ng/mL should be attained. To maintain the effectiveness, this target Ctrough level was required to be achieved across the dosing interval.

[4] = system: clinical RSV isolates (31 A-subtypes and 29 B-subtypes); assay: Cytopathic and plaque reduction assays against clinical RSV isolates; type: cell-based
Experimental: AK0529 (ziresovir) is a potent, selective, and orally bioavailable RSV F protein inhibitor.[9]
as §1

[5] = system: clinical RSV isolates (31 A-subtypes and 29 B-subtypes); parameters: method as in PMID 31194544; conditions: all clinical RSV isolates (31 A-subtypes and 29 B-subtypes) ref 9; cited from earlier work
[6] = Part 1, single oral dose 0.5 mg/kg
[7] = Part 1, single oral dose 1.0 mg/kg
[8] = Part 1, single oral dose 2.0 mg/kg
[9] = Part 1, single oral dose 4.0 mg/kg

With Cc1ccc2nc(N3CCS(=O)(=O)c4ccccc4C3)nc(NCC3(N)COC3)c2c1 [AK0529, ziresovir] the “median Wang Respiratory Score change” value ([1]; Part 1, single dose, baseline to 24 h, one-sided p = 0.004 combined AK0529 groups vs placebo) was “decreased from baseline to 24 h in a dose‐related manner”, the “median reduction in Wang Respiratory Score from baseline” value ([1]; Part 2, 2 mg/kg bid, baseline to 96 h, 95% CI −4.51, −2.03, placebo −2.0, one-sided p = 0.031) was −4.0 and the “Hodges–Lehmann estimation of between-group difference in Wang Respiratory Score” value ([1]; full analysis population, 95% CI −2, 1) was −1. The “Hodges–Lehmann estimation of between-group difference in Wang Respiratory Score” value ([1]; two cases of bacterial pneumonia excluded, 95% CI −2, 0, p = 0.009) was −1, the “patients achieving disease remission (Wang Respiratory Score ≤1)” value ([1]; post-hoc, 2 mg/kg bid, by Day 5, 8/11 patients, placebo 31%, p 0.0412) was 73% and the “elimination half-life in subjects aged <6 months” value ([2]; Part 1, compared with older subjects) was “slightly longer”. The “time to reach Cmax” value ([2]; Part 1, single doses except 4 mg/kg) was “around 4 h”, the “change in AUC with dose” value ([2]; Part 1, single doses up to 4 mg/kg, no apparent plateau) was “dose‐dependent increase” and the targeted drug exposure ([2]; Part 2, 2 mg/kg bid) was “reached”. The “dose proportionality of mean Cmax and AUCτ” value ([2]; Part 2, across the dose range tested) was “approximate dose proportionality”, the “increase in AUCτ from Days 1 to 5 (accumulation)” value ([2]; Part 2, bid dosing) was “approximately 1.5 fold” and the median trough ([2]; Part 2, bid dosing) was 12 h. The Tmax ([2]; oral, Part 2, Days 1 and 5, read-out: median tmax) was 2.5 to 3.8 h, the AUC(0-t) ([2]; oral, Part 1, single doses up to 4 mg/kg, read-out: AUC0–24) was ≤ 7780 ng·h/mL and the Tmax ([2]; po, 0.5 mg/kg, Part 1, single oral dose 0.5 mg/kg, read-out: tmax median (range)) was 4.5 h. It also gave a Tmax ([2]; po, 1 mg/kg, Part 1, single oral dose 1.0 mg/kg, read-out: tmax median (range)) of 4.3 h, a Tmax ([2]; po, 2 mg/kg, Part 1, single oral dose 2.0 mg/kg, read-out: tmax median (range)) of 3.3 h and a Tmax ([2]; po, 4 mg/kg, Part 1, single oral dose 4.0 mg/kg, read-out: tmax median (range)) of ~2 h. The Cmax ([2]; Part 1, single oral dose 0.5 mg/kg, N 4, all younger than 6 months) was 158 ng/mL, the AUC(0-t) ([2]; Part 1, single oral dose 0.5 mg/kg, read-out: AUC0–24 mean (CV %)) was 1770 ng·h/mL and the AUC(0-inf) [2, 6] was 2060 ng·h/mL. It also gave a half-life [2, 6] of 7.7 h, a Cmax ([2]; Part 1, single oral dose 1.0 mg/kg, N 6) of 302 ng/mL and an AUC(0-t) ([2]; Part 1, single oral dose 1.0 mg/kg, read-out: AUC0–24 mean (CV %)) of 2890 ng·h/mL. It also gave an AUC(0-inf) [2, 7] of 3150 ng·h/mL, a half-life [2, 7] of 5.7 h and a Cmax ([2]; Part 1, single oral dose 2.0 mg/kg, N 4) of 375 ng/mL. It also gave an AUC(0-t) ([2]; Part 1, single oral dose 2.0 mg/kg, read-out: AUC0–24 mean (CV %)) of 3790 ng·h/mL, an AUC(0-inf) [2, 8] of 4200 ng·h/mL and a half-life [2, 8] of 6.2 h. It also gave a Cmax ([2]; Part 1, single oral dose 4.0 mg/kg, N 3 incl. one subject of Study AK0529-1002) of 888 ng/mL, an AUC(0-t) ([2]; Part 1, single oral dose 4.0 mg/kg, read-out: AUC0–24 mean (CV %)) of 7780 ng·h/mL and an AUC(0-inf) [2, 9] of 8280 ng·h/mL. The half-life [2, 9] was 6 h, the minimum target trough concentration (5 × EC90) ([3]; HEp-2, target Ctrough in humans, read-out: 5 × EC90 value (minimum target efficacious concentration)) was 0.04 µg/mL and the EC90 ([3]; Hep-2 cells, CPE assay, read-out: EC90 of the RSV-induced reduction of cell viability (average)) was 5 nM and 0.0022 µg/mL. The “potency against various RSV clinical isolates compared with laboratory strains” value [4] was “remained the same” and the “antiviral activity EC90” value [5] was “nanomolar concentrations”.
